{"source": "ChEMBL document CHEMBL1201862", "about": "“PubChem BioAssay data set” (2004)", "key": {"[1]": {"target": "Eukaryotic translation initiation factor 4E (Mus musculus, UniProt P63073)", "sequence (P63073 whole entry)": "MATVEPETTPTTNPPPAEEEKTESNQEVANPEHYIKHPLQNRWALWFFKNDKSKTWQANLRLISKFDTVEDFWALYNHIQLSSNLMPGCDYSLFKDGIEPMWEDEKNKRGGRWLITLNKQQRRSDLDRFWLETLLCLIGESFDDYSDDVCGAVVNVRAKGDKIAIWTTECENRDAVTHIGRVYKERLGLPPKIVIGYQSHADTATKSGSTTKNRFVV", "test": "blockers of eIF4G binding by eIF4E – biochemical, TR-FRET, dose response (AID 855);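 note: potency for disrupting eIF4E binding to eIF4GI seen as loss of FRET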", "type": "functional"}, "[2]": {"target": "T1, RNA-binding protein pos-1 (Caenorhabditis elegans, UniProt G5EF15)", "T1 sequence (G5EF15 whole entry)": "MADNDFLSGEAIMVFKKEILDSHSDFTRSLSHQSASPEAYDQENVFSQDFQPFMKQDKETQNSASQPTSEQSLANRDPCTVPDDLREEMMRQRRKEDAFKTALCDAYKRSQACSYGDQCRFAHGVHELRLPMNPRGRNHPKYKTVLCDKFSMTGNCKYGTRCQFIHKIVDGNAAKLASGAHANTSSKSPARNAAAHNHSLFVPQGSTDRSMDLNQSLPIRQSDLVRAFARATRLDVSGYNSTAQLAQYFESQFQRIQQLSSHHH", "test": "disruptors of C. elegans POS-1 RNA interaction – biochemical, fluorescence polarization, dose response (AID 1964);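 note: purified POS-1 fused to maltose binding protein made in E. coli; potency of compounds blocking POS-1 binding to fluorescent RNA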"}, "SUMO-activating enzyme [3]": {"target": "T2, SUMO-activating enzyme (Homo sapiens, UniProt Q9UBT2)", "T2 sequence (Q9UBE0 whole entry)": "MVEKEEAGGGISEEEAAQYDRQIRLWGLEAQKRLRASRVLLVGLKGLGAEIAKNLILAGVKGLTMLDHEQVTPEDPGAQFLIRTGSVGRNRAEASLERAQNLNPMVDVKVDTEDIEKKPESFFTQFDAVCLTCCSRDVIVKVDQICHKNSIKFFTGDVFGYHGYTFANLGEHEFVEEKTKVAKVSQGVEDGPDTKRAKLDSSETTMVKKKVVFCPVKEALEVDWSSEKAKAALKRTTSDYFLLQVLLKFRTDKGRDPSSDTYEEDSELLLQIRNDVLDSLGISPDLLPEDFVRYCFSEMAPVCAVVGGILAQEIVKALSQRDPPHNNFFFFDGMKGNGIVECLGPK", "T2 sequence (Q9UBT2 whole entry)": "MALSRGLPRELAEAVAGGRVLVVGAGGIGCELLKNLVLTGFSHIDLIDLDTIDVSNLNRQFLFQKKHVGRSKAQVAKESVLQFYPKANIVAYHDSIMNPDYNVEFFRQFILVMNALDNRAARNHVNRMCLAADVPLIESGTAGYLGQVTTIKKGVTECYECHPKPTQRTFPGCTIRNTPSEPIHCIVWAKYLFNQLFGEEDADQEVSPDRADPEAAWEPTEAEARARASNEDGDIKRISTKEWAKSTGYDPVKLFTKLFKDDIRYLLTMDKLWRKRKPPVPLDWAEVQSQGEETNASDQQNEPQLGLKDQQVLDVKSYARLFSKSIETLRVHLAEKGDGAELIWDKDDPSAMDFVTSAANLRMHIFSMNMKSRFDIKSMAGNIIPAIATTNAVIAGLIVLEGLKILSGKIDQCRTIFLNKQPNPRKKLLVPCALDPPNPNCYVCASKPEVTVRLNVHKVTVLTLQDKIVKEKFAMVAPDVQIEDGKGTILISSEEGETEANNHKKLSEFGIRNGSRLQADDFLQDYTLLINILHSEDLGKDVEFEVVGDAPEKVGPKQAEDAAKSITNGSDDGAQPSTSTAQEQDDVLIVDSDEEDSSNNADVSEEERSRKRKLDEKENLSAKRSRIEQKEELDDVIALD", "test": "blockers of SAE1/SAE2–UBC9 SUMO transfer – biochemical, HTRF, uHTS, primary screen (AID 2006)", "type": "protein-complex assay"}, "[4]": {"target": "T3, Zinc finger protein mex-5 (Caenorhabditis elegans, UniProt Q9XUB2)", "T3 sequence (Q9XUB2 whole entry)": "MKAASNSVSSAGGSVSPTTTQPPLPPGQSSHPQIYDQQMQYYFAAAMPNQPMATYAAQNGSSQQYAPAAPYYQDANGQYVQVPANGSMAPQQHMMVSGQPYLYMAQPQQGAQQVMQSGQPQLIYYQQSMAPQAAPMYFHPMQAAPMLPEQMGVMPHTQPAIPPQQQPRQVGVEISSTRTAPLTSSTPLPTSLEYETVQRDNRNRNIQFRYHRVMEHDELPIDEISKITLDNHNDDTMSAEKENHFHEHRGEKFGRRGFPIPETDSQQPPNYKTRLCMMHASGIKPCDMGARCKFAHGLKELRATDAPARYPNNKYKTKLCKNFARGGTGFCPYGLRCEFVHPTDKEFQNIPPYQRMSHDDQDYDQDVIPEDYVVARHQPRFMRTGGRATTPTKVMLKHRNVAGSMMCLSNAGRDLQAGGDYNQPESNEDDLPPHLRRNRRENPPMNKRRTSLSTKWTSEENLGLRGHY", "test": "potency of MEX-5 RNA-binding blockers – biochemical, C. elegans, fluorescence polarization, dose response (AID 1960)"}, "[5]": {"target": "Induced myeloid leukemia cell differentiation protein Mcl-1 (Homo sapiens, UniProt Q07820)", "sequence (Q07820 whole entry)": "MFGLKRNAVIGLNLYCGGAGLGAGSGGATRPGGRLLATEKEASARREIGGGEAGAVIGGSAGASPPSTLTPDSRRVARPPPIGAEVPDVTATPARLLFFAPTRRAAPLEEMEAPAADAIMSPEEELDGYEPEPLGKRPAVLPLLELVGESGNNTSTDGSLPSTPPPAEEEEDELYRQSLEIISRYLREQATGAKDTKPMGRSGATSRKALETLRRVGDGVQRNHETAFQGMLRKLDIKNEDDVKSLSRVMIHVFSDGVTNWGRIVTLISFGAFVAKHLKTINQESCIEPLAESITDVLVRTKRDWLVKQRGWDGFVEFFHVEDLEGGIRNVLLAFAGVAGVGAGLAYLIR", "type": "functional"}, "SUMO-activating enzyme [6]": {"target": "T2, SUMO-activating enzyme", "test": "blockers of UBC9-mediated SUMO conjugation – biochemical, AlphaScreen, SUMOylation inhibitor project, confirmation (AID 2018)", "type": "functional"}, "Genome polyprotein": {"target": "Genome polyprotein (dengue virus type 2, UniProt P29990)", "sequence (P29990 2492-3391 limits assumed)": "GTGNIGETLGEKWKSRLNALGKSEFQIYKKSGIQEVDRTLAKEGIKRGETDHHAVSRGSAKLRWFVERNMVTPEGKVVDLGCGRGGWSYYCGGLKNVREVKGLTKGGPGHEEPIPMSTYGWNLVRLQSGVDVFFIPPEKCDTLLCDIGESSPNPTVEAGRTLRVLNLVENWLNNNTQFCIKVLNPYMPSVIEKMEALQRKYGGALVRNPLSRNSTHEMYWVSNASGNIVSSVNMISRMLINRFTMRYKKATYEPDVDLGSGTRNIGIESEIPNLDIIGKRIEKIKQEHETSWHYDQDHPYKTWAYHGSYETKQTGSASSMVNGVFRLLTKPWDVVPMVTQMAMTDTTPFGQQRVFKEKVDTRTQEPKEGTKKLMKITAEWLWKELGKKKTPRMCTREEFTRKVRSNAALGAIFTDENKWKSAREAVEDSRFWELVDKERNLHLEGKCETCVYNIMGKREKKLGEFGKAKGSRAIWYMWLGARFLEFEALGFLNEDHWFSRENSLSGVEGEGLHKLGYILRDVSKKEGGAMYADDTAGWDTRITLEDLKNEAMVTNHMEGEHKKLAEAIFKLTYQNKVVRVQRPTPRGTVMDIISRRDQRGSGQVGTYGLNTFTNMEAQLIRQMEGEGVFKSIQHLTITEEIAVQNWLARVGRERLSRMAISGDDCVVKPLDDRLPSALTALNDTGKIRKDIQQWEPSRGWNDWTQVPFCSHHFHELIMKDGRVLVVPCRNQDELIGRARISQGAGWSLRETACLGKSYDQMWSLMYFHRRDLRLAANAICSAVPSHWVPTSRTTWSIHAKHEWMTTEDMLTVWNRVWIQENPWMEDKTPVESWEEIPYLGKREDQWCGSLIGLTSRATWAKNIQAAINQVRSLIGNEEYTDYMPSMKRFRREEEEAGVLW", "test": "flavivirus cap methylation enzyme inhibition – biochemical, confirmation dose response, primary screen (AID 588689)", "type": "functional"}, "[7]": {"test": "HEK-293T cell viability reduction – luminescence, B-cell screen hits, cytotoxicity control for BCR NF-kB inhibitor project, dose response (AID 489021);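 note: HEK-293T cells carrying an NF-kB luciferase reporter; cells exposed to compound for about 14 hours before viability readout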", "type": "functional, cell-based"}, "[8]": {"test": "Luminescence Cell-Based Dose Retest to Confirm Inhibitors of Cancer Stem Cells. [Related pubchem assays (depositor defined):AID2717, AID2721]", "type": "functional", "conditions": "Homo sapiens"}, "[9]": {"test": "HEK-293T viability loss after treatment – luminescence, T-cell screen hits, cytotoxicity control for TCR NF-kB inhibitor project, dose response (AID 489026);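 note: cells exposed to compound about 14 hours before the viability readout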", "type": "functional, cell-based"}}, "note": "Calls of active or inactive are those of the source.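 Throughout, for AC50: cells exposed to compound for roughly 70 hours or longer before luminescence read.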"}
{"compound": "Cc1ccc(CNC(=O)c2ccc(N3CCc4ccccc43)c([N+](=O)[O-])c2)cc1", "values": [{"measurement": "IC50", "setting": "[1]", "value": "> 64 µM (inactive)"}]}
{"compound": "CC1=C(C#N)C(=O)NC(=O)/C1=C\\c1ccc(-c2cc(C)c(C)cc2[N+](=O)[O-])o1", "values": [{"measurement": "EC50", "setting": "[2]", "value": "> 300 µM (not active)"}, {"measurement": "IC50", "setting": "SUMO-activating enzyme [3]", "value": "39.7 µM (active)"}, {"measurement": "EC50", "setting": "[4]", "value": "> 300 µM (not active)"}, {"measurement": "IC50", "setting": "[5]", "value": "2.87 µM (active)"}, {"measurement": "IC50", "setting": "SUMO-activating enzyme [6]", "value": "5.31 µM (active)"}, {"measurement": "IC50", "setting": "[1]", "value": "40.4 µM (inactive)"}, {"measurement": "IC50", "setting": "Genome polyprotein", "value": "64.9 µM (active)"}]}
{"compound": "COc1ccc(/C=C2\\SC(=S)N(CCC(=O)Nc3ccc(O)cc3)C2=O)cc1", "values": [{"measurement": "IC50", "setting": "[7]", "value": "> 80 µM (inactive)"}]}
{"compound": "Cc1ccc(-c2nsc3c(N4CCC(C(N)=O)CC4)ncnc23)cc1", "values": [{"measurement": "IC50", "setting": "[7]", "value": "> 80 µM (inactive)"}]}
{"compound": "O=C1OC(c2cccs2)=N/C1=C/c1ccc(-c2cccc(C(=O)O)c2)o1", "values": [{"measurement": "IC50", "setting": "[5]", "value": "1.53 µM (not active)"}, {"measurement": "IC50", "setting": "[1]", "value": "32.7 µM (inactive)"}]}
{"compound": "CCOC(=O)c1c(CSc2ccccc2)n(C)c2cc(Br)c(OCC(O)CNC(CO)(CO)CO)cc12", "note": "(stereo unspecified)", "values": [{"measurement": "IC50", "setting": "SUMO-activating enzyme [3]", "value": "17.9 µM (active)"}, {"measurement": "IC50", "setting": "SUMO-activating enzyme [6]", "value": "2.75 µM (active)"}, {"measurement": "AC50", "setting": "[8]", "value": "1.46 µM (active)"}]}
{"compound": "CCc1ccc(/C=N/NC(=O)c2cc(-c3ccncc3)nc3ccccc23)s1", "values": [{"measurement": "IC50", "setting": "[9]", "value": "> 80 µM (inactive)"}]}
